The test system of test [1] is Human breast cancer cell line T47D. Description: Cell based caspase-3 activity assay: potentiation of MMS induced apoptosis. Particulars: T47D cells, 11.1 μg/ml MMS, 24 hours, intracellular caspase-3 activity, read-out: EC50 (nM), potentiation of the apoptosis inducing activity of MMS. In short, it runs like this: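 T47D cells were exposed for 24 h to compound plus a minimally apoptotic MMS dose (medium containing 11.1 μg/ml MMS). Lysates were incubated 3 h at 37 °C with (Ac-DEVD)2-R110 caspase-3 substrate (20 μM in added buffer) and read at ex 496/em 520 nm. EC50 came from a sigmoidal fit of RFU versus log concentration.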

Test [2] concerns SW620 human colorectal cancer cells. Description: MTT based cell viability assay: potentiation of the growth inhibiting activity of MMS.
Setting [3] is: read-out: IC50 (nM), potentiation of the growth inhibiting activity of MMS, SW620 cells, 1.7 μg/ml MMS, 5 days (120 hours), MTT.
The mark [4] stands for this setting: Homo sapiens, SW-620, 120 h, read-out: IC50 (nM), potentiation of the growth inhibiting activity of MMS, SW620 cells, 1.7 μg/ml MMS, 5 days (120 hours), MTT.

Where two headings read alike, the source gives them in different places.

For the compound `Cc1ccc2c(=O)[nH]c(=O)n(Cc3cccc(C(=O)N4CCN(C(=O)C5CCCC5)CC4)c3)c2c1` [Example 79, 1-(3-(4-(Cyclopentylcarbonyl)piperazine-1-carbonyl)benzyl)-7-methylquinazoline-2,4(1H,31H)-dione], in test [1], the EC50 (usually the concentration at which the effect is half-maximal) came to 3220 nM. Besides, the IC50 in test [2] (setting [3]) was 5540 nM.
On to `O=C(c1cccc(Cn2c(=O)[nH]c(=O)c3ccccc32)c1)N1CCN(S(=O)(=O)C2CCCCC2)CC1` [Example 75, 1-(3-(4-(Cyclohexylsulfonyl)piperazine-1-carbonyl)benzyl)quinazoline-2,4(1H,3H)-dione], for which the EC50 in test [1] (Homo sapiens, T47D, 24 h) was determined as 2870 nM. Also, the IC50 in test [2] (setting [4]) was found to be 2660 nM.
For “1-(3-(4-(Cyclopentylcarbonyl)piperazine-1-carbonyl)-4-fluorobenzyl)-6-fluoroquinazoline-2,4(1H,3H)-dione [Example 148]”, the half-maximal effective concentration (EC50) in test [1] worked out at 2.3 nM. Besides, in test [2] (setting [3]), the IC50 was 2.1 nM.
As for `O=C(Cc1ccc2ccccc2c1)Nc1cccc(Cn2c(=O)[nH]c(=O)c3ccccc32)c1` [Example 196, 1-(3-(Naphthalen-2-yl)acetamidobenzyl)quinazoline-2,4(1H,3H)-dione], the EC50 in test [1] (Homo sapiens, T47D, 24 h) was more than 10000 nM. The IC50 in test [2] (setting [4]) was 985 nM.
Consider `COc1ccc(CNC(=O)c2cc(Cn3c(=O)[nH]c(=O)c4c(F)cccc43)ccc2F)cc1` [Example 200, 5-Fluoro-1-(4-fluoro-3-(4-methoxybenzylcarbamoyl)benzyl)quinazoline-2,4(1H,3H)-dione], for which, in test [1] (Homo sapiens, T47D, 24 h), the EC50 is more than 10000 nM. In addition, the IC50 in test [2] (setting [4]) was more than 10000 nM.
With `Cc1ccc2c(=O)[nH]c(=O)n(Cc3cccc(C(=O)N4CCN(c5ncccn5)CC4)c3)c2c1` [Example 80, 7-Methyl-1-(3-(4-(pyrimidin-2-yl)piperazine-1-carbonyl)benzyl)quinazoline-2,4(1H,3H)-dione], the EC50 in test [1] (Homo sapiens, T47D, 24 h) is 1190 nM. In addition, the IC50 in test [2] (setting [4]) is more than 10000 nM.
Taken in the same sequence, the figures for `O=C(c1ccc(F)c(Cn2c(=O)[nH]c(=O)c3c(F)cccc32)c1)N1CCN(C(=O)C2CCC2)CC1` [Example 182, 1-(3-(4-(Cyclobutylcarbonyl)piperazine-1-carbonyl)-6-fluorobenzyl)-5-fluoroquinazoline-2,4(1H,3H)-dione] were 14 nM and 16 nM.
Take `O=C(c1ccc(Cl)c(Cn2c(=O)[nH]c(=O)c3ccccc32)c1)N1CCN(c2ccccn2)CC1` [Example 58, 1-(6-Chloro-3-(4-(pyridin-2-yl)piperazine-1-carbonyl)benzyl)quinazoline-2,4(1H,3H)-dione]: in test [1] (Homo sapiens, T47D, 24 h), the EC50 was 108 nM. In test [2] (setting [4]), the IC50 came out at 171 nM.
As to `O=C(c1cccc(Cn2c(=O)[nH]c3c(Cl)cccc3c2=O)c1)N1CCN(c2ncccn2)CC1` [Example 223, 8-Chloro-3-(3-(4-(pyrimidin-2-yl)piperazine-1-carbonyl)benzyl)quinazoline-2,4(1H,3H)-dione], the concentration giving a half-maximal response (EC50) in test [1] (Homo sapiens, T47D, 24 h) was more than 10000 nM. The IC50 in test [2] (setting [4]) was more than 10000 nM.
As for `COc1ccc(CC(=O)Nc2cccc(Cn3c(=O)[nH]c(=O)c4ccccc43)c2)cc1OC` [Example 197, 1-(3-(3,4-Dimethoxyphenyl)acetamidobenzyl)quinazoline-2,4(1H,3H)-dione], the EC50 in test [1] (Homo sapiens, T47D, 24 h) is more than 10000 nM. Besides, the IC50 in test [2] (setting [4]) was more than 10000 nM.
Regarding `O=C(c1cccc(Cn2c(=O)[nH]c(=O)c3c(F)cccc32)c1)N1CCN(C(=O)C2CCCCC2)CC1` [Example 129, 1-(3-(4-(Cyclohexylcarbonyl)piperazine-1-carbonyl)benzyl)-5-fluoroquinazoline-2,4(1H,3H)-dione], the concentration for a half-maximal effect (EC50) in test [1] (Homo sapiens, T47D, 24 h) was found to be 49 nM. Besides, the IC50 in test [2] (setting [4]) worked out at 18 nM.
`O=C(c1ccc(F)c(Cn2c(=O)[nH]c(=O)c3c(Cl)cccc32)c1)N1CCN(C(=O)C2CCC2)CC1` [Example 170, 5-Chloro-1-(3-(4-(cyclobutylcarbonyl)piperazine-1-carbonyl)-6-fluorobenzyl)quinazoline-2,4(1H,3H)-dione]: the half-maximal effective concentration (EC50) in test [1] (Homo sapiens, T47D, 24 h) was 43 nM. Moreover, the IC50 in test [2] (setting [4]) stood at 120 nM.
Regarding `Cc1cccc2c1c(=O)[nH]c(=O)n2Cc1cccc(C(=O)N2CCN(c3ncccn3)CC2)c1` [Example 159, 5-Methyl-1-(3-(4-(pyrimidin-2-yl)piperazine-1-carbonyl)benzyl)quinazoline-2,4(1H,3H)-dione], in test [1] (Homo sapiens, T47D, 24 h), the EC50 was 220 nM. The IC50 in test [2] (setting [4]) was 648 nM.
With `O=C(c1cccc(Cn2c(=O)[nH]c(=O)c3ccccc32)c1)N1CCN(c2ccc3nncn3n2)CC1` [Example 6, 1-(3-(4-([1,2,4]Triazolo[4,3-b]pyridazin-6-yl)piperazine-1-carbonyl)benzyl)quinazoline-2,4(1H,3H)-dione], the concentration for a half-maximal effect (EC50) in test [1] (Homo sapiens, T47D, 24 h) is 2520 nM. For the same compound, the IC50 in test [2] (setting [4]) stood at 7030 nM.
In the case of `O=C(c1ccc(F)c(Cn2c(=O)[nH]c(=O)c3c(Cl)cccc32)c1)N1CCN(C(=O)C2CCCC2)CC1` [Example 109, 5-Chloro-1-(3-(4-(cyclopentylcarbonyl)piperazine-1-carbonyl)-6-fluorobenzyl)quinazoline-2,4(1H,3H)-dione], the EC50 in test [1] (Homo sapiens, T47D, 24 h) was 23 nM. In addition, the IC50 in test [2] (setting [4]) was determined as 48 nM.
On to `COc1ccc(C(=O)N2CCN(c3ncccn3)CC2)cc1Cn1c(=O)[nH]c(=O)c2c(F)cccc21` [Example 208, 5-Fluoro-1-(6-methoxy-3-(4-(pyrimidin-2-yl)piperazine-1-carbonyl)benzyl)quinazoline-2,4(1H,3H)-dione], for which the concentration for a half-maximal effect (EC50) in test [1] (Homo sapiens, T47D, 24 h) was 24 nM. The IC50 in test [2] (setting [4]) amounted to 37 nM.
Taken in the same sequence, the figures for `O=C(c1cccc(Cn2c(=O)[nH]c(=O)c3ccc(C(F)(F)F)cc32)c1)N1CCN(c2ncccn2)CC1` [Example 206, 1-(3-(4-(Pyrimidin-2-yl)piperazine-1-carbonyl)benzyl)-7-(trifluoromethyl)quinazoline-2,4(1H,3H)-dione] were more than 10000 nM and more than 10000 nM.
`O=C(c1cccs1)N1CCN(C(=O)c2cc(Cn3c(=O)[nH]c(=O)c4cc(Cl)ccc43)ccc2F)CC1` [Example 121, 6-Chloro-1-(4-fluoro-3-(4-(thiophene-2-carbonyl)piperazine-1-carbonyl)benzyl)quinazoline-2,4(1H,3H)-dione]: the EC50 in test [1] (Homo sapiens, T47D, 24 h) was 4.9 nM. Besides, the IC50 in test [2] (setting [4]) came to 4.5 nM.
As for `COc1ccc(C(=O)N2CCN(C(=O)c3ccc(Cn4c(=O)[nH]c(=O)c5ccccc54)cc3)CC2)cc1` [Example 95, 1-(4-(4-(4-Methoxybenzoyl)piperazine-1-carbonyl)benzyl)quinazoline-2,4(1H,3H)-dione], the concentration giving a half-maximal response (EC50) in test [1] (Homo sapiens, T47D, 24 h) is more than 10000 nM. Further, the IC50 in test [2] (setting [4]) was more than 10000 nM.
With `O=C(c1cc(Cn2c(=O)[nH]c(=O)c3cc(Cl)ccc32)ccc1F)N1CCN(c2ccccn2)CC1` [Example 120, 6-Chloro-1-(4-fluoro-3-(4-(pyridin-2-yl)piperazine-1-carbonyl)benzyl)quinazoline-2,4(1H,3H)-dione], the EC50 in test [1] (Homo sapiens, T47D, 24 h) came out at 8.8 nM. Further, in test [2] (setting [4]), the IC50 came out at 42 nM.
The matching figures for `O=C(c1cccc(Cn2c(=O)[nH]c(=O)c3ccccc32)c1)N1CCN(c2ccccc2)CC1` [Example 19, 1-(3-(4-Phenylpiperazine-1-carbonyl)benzyl)quinazoline-2,4(1H,3H)-dione]: more than 10000 nM and more than 10000 nM.
The matching figures for `COC(=O)c1cc(Cn2c(=O)[nH]c(=O)c3ccccc32)ccc1F` [Example 21, 1-(4-Fluoro-3-methoxycarbonylbenzyl)quinazoline-2,4(1H,3H)-dione]: 5800 nM and more than 10000 nM.

(Values after patent US9926304B2, “1-(arylmethyl)quinazoline-2,4(1H,3H)-diones as PARP inhibitors and the use thereof” (Impact Therapeutics, Inc., priority 2011, dated 2018).)
